In patent publication US5427766A, “Radiolabeled steroids for use in radiochemical-guided surgery” (priority 1993, dated 1995):

Assay: physchem
Assay type: physicochemical
Details: solid state
Experimental: (Z)-Stannyl olefin 4 (25 mg, 41 μmol) was added to 1 mL of chloroform and iodine (10.9 mg, […]) was added with stirring. Rapid decoloration took place and an additional amount of iodine (1 mg) was added which imparted a pink color. Several drops of methanolic potassium fluoride was added which precipitated a tin complex. To the slurry was added 0.5 mL of saturated […] and the organic phase was separated, dried over sodium sulfate and evaporated to give an oil. This material was chromatographed using 2 percent methanol in chloroform on a 1 cm×10 cm flash gel column to give (Z)-iodo olefin 5 (15.3 mg) in 84 percent yield as a white solid.

With CC[C@H]1C[C@@]2(C)[C@@H](CC[C@@]2(O)/C=C\I)[C@@H]2CCc3cc(O)ccc3[C@@H]12 [(Z)-iodo olefin 5, 11β-Ethyl-17α-(Z)-(iodovinyl)estra-3,17β-diol] the protodestannylation in product (a week at 25° C., HPLC 254 nm) was 3.4 area percent, the “suspect (E)-iodo” value (a week at 25° C., HPLC 254 nm) was 10.9 area percent and the remaining at 168 h was 74%.
